Assays:
[1] = test system: AV node and ventricular Purkinje system; conditions: ivabradine 0.2 mg/kg, i.v., cited from earlier work
[2] = test system: Guinea Pig Isolated Hearts; experiment: S-H interval (AV nodal conduction) in guinea pig isolated, Langendorff-perfused paced hearts; conditions: for second-degree AV block (dropped beats): isolated paced hearts, drug alone; for increase in the S-H interval compared to control (no drug): ivabradine 0.1 μM, ranolazine 2 μM, alone or combined, pacing rate of 4 and 5 Hz, FIG. 1
Description: To test the combined effects of ranolazine and ivabradine on AV conduction, the following experimental procedures were employed.
Guinea pigs (Hartley) of either sex weighing 300-350 g were anesthetized by inhalation of isoflurane. The chest of a guinea pig was cut open, and the heart was quickly removed and rinsed in ice-cold modified Krebs-Henseleit (K-H) solution. The contents of the modified K-H solution were (in mM) 117.9 NaCl, 4.8 KCl, 2.5 CaCl2, 1.18 MgSO4, 1.2 KH2PO4, 0.5 Na2 EDTA, 0.14 ascorbic acid, 5.5 dextrose, 2.0 pyruvic acid (sodium salt), and 25 NaHCO3. The K-H solution was continuously gassed with 95% O2-5% CO2, and the pH was adjusted to a value of 7.4.
To perfuse the heart by the Langendorff method, the transected aorta was slid onto a glass cannula and secured by a ligature. Retrograde perfusion of the aorta was initiated immediately at a constant flow of 10 mL/min with modified K-H solution warmed to 37.0±0.5° C. A side port in the cannula was used to connect the perfusion line to a pressure transducer (AD Instruments, Australia) for measurement of coronary perfusion pressure (CPP). To facilitate the exit of fluid from the left ventricle, the leaflets of the mitral valve were trimmed with fine spring-handled scissors. Hearts were allowed to beat spontaneously in experiments to measure heart rate, or paced at a constant rate using external electrodes, in experiments to measure AV conduction time. After completion of dissection and instrumentation, stimulus-to-H is bundle (S-H) interval was monitored continuously. Each heart was allowed to equilibrate for 20-40 min before the administration of drug. Experimental interventions were always preceded and followed by control measurements.
To facilitate the recording of a drug effect on the S-H interval, parts of the left and right atrial tissues, including the region of the sinoatrial node, were removed, both to decrease the spontaneous heart rate and to expose the atrial septum for electrode placement. A bipolar Teflon-coated electrode was placed in the wall of the intra-atrial septum to pace the heart. […] Stimuli were provided by a stimulation generator (model 48, Grass Instruments, W. Warwick, R I) and delivered to the heart through a stimulus isolation unit as square wave pulses of 3 msec duration and at least twice the threshold intensity.
A His bundle electrogram was recorded using a Teflon-coated unipolar electrode placed in the right side of the interatrial septum adjacent to the AV junction. […]
Ivabradine (Iva), ranolazine (Ran) or the combination thereof was infused to the hearts. Each concentration of Iva was infused for about 20 min to allow a steady-state response to be recorded, whereas each concentration of ranolazine was infused for 10 min to allow a steady-state response to be recorded. […]

[3] = Plasma level determination by LC/MS/MS in pigs; format: in vivo; conditions: pig; at the time of testing combined administration with ivabradine
Procedure: Blood samples were collected in sodium heparin tubes at 0 and 30 minutes following ranolazine bolus administration and at 0, 15, and 30 minutes after ivabradine bolus administration. The samples were centrifuged and frozen at −80° C. until drug level determination was performed. Concentrations of ivabradine and ranolazine in plasma were determined at Gilead Sciences, Inc. (Foster City Calif.). Plasma was analyzed using a high-performance liquid chromatography-tandem mass spectrometric assay (LC/MS/MS). The quantification limit of ivabradine was 4 nM (1.87 ng/mL). The dynamic range of quantification was 4-10 000 nM (1.87-4686 ng/mL). Ranolazine and an internal standard were extracted with the protein precipitation extraction method. The dynamic range of quantification for ranolazine was 45.8-23,400.

[4] = test system: atrial and ventricular myocardium; conditions: cited from earlier work
[5] = Reffelmann and Kloner 2010; Verrier et al 2013; cited from earlier work

For `COc1cc2c(cc1OC)CC(=O)N(CCCN(C)C[C@H]1Cc3cc(OC)c(OC)cc31)CC2` [ivabradine, 3-{3-[{[(7S)-3,4-dimethoxybicyclo[4.2.0]octa-1,3,5-trien-7-yl]methyll}-(methyl)amino]propyl}-7,8-dimethoxy-1,3,4,5-tetrahydro-2H-3-benzapenin-2-one], the heart rate ([1]; Thollon 1997, Camm and Lau 2003) is given as “lowers heart rate”, the “conductivity, refractoriness or repolarization duration of AV node and ventricular Purkinje system” value [1] is given as “without causing changes” and the “second-degree AV block (dropped beats)” value [2] is given as “without causing second-degree AV block”. For the same compound, the “increase in the S-H interval compared to control (no drug)” value [2] was “small but significant increase”.
With `COc1ccccc1OCC(O)CN1CCN(CC(=O)Nc2c(C)cccc2C)CC1` (racemic) [ranolazine, (±)-N-(2,6-dimethylphenyl)-4-[2-hydroxy-3-(2-methoxyphenoxy)-propyl]-1-piperazineacetamide] the “plasma level of ranolazine” value [3] was 9.8 ± 1.5 µM, the “second-degree AV block (dropped beats)” value [2] was “without causing second-degree AV block” and the “increase in the S-H interval compared to control (no drug)” value [2] was “small but significant increase”. The “dominant frequency of AF” value ([4]; Kumar et al. 2009) was “capable of reducing”, the “APD in ventricular myocardium” value ([4]; clinically relevant concentrations (5 and 10 μM)) was “minimal or no effect” and the “duration of the action potential (APD90) in atria” value ([4]; published studies) was “prolongs”. For the same compound, the “steady-state plasma therapeutic concentration” value [5] was 2 to 8 µM.
